This is an account of results in patent US20070224287A1, “Methods of Modulating Inflammatory Reactions by Modulating Xanthine Oxidoreductase Activity” (priority 2003, published 2007).

For test [1], the system named is IL-1 and IFN-γ insufflated rats. The test can be described thus: Differential and total inflammatory cell counts in BALF after cytokine insufflation. The test is classed as in vivo, rat. Particulars: diet before IL-1 and IFN-γ insufflation, 24 hours later; allopurinol 50 mg/Kg for seven days (FIG. 4c). From the text:
Intratracheal cytokine insufflation.

Another test has as its system alveolar cells. The test can be described thus: TUNEL staining and morphometric analysis. The note with it: prior feeding with diet, IL-1 and IFN-γ insufflation 24 h before (FIG. 4f,g). It counts as in vivo, rat. As to the method:
TUNEL staining and morphometric analysis. The TUNEL assay was used to detect apoptotic cells in fixed lung sections. After fixation with 4% buffered formalin, lung tissue sections were embedded in paraffin, sectioned at […], and mounted on glass slides. Slides were de-paraffinized, rehydrated for 10 min in PBS, and treated with 0.002% proteinase K (Sigma) in distilled water for 5 to 15 min at room temperature. Terminal deoxynucleotidyl transferase (TdT) was used for labeling of DNA nicks using the TACS kit (Trevigen, Inc., Gaithersburg, Md.). Counterstaining with DAPI was done to stain nuclear DNA and with Rhodamine coupled wheat germ agglutinin (WGA, Molecular Probes, Eugene, Oreg.) to stain the structural architecture. TUNEL positive cell staining appeared as green fluorescence in the nuclei of clearly defined alveolar cells. Background nuclear staining appeared as blue while the tissue architecture was red.

Another test relates to caspase-3. The test can be described thus: Activated caspase-3 detection in lung sections. The test is classed as in vivo, rat. The note with it: prior feeding with diet, IL-1 and IFN-γ insufflation 24 hours before (FIG. 4h). As to the method: Activated caspase-3 detection. Detection of the cleaved, mature, activated caspase-3 was performed on paraffin-embedded sections using the Cell Signaling Technology, Inc (Beverly, Mass.) protocol. First, paraffin-embedded slides were deparaffinized and rehydrated. Incubation with 1% H2O2 for 10 min blocked endogenous peroxidase activity. For antigen unmasking, the tissue sections were microwaved in 10 mM sodium citrate buffer (pH 6.0) for 10 min. Next, the sections were blocked in 5% goat serum for 1 hr at room temperature. Slides were then incubated at 4° C. overnight with caspase-3 antibody specific for the cleaved, mature, form of caspase-3 diluted 1:200 in phosphate buffered saline (Asp-175; Cell Signaling Technology, Inc). This was followed by a 30 min incubation with a 1:200 dilution of goat anti-rabbit antibody (PK-6101; Vector Laboratories, Burlingame, Calif.). A subsequent 30 min incubation with VectaStain Elite ABC reagent (PK-6101; Vector Laboratories) ensued. This reaction was followed by the addition of the DAB substrate kit for peroxidase (SK-4100; Vector Labs). The slides were finally counterstained with hematoxylin (H-3401; Vector Labs), dehydrated and mounted. Caspase-3 positive cells were quantitated by counting the percent positive alveolar cells per field under 100× magnification.

A further test has as its target T1, MNP XOR (Rattus norvegicus, UniProt P22985).
T1 construct: endogenous in cells; host or cells: BALF cells / adherent mononuclear phagocytes from IL-1 and IFN-gamma insufflated Sprague-Dawley rats
As to the kind of experiment: Cell transfer experiment: BALF cells treated in vitro and insufflated into control rats. It counts as in vivo. Particulars: BALF cells exposed 15 min to 150 μM allopurinol in vitro, 2×10^6 cells insufflated into control rats, BALF 24 hours later, p<0.05 vs control cells (FIG. 5c).

For the next test, the system named is Id-2. The test can be described thus: Western immunoblot of Id-2 from BALF cells. The test is classed as in vivo, rat. Particulars: 24 hours following cytokine insufflation, allopurinol vs control fed rats. As for the experimental part: Western immunoblot analysis of the differential inhibitor, Id-2, from BALF cells obtained 24 hours following cytokine insufflation in allopurinol (A) or control (C) fed rats.

The subject of test [2] is patients with chronic heart failure (CHF), cardiomyopathy, or undergoing heart surgery. Particulars: cited from earlier work.
Test [3] concerns vascular endothelial function. Particulars: Type 1 and Type 2 diabetes in humans; cited from earlier work.
Another test relates to superoxide generation. Particulars: streptozotocin induced diabetes in mice; cited from earlier work.
In a further test the test system is pancreatic fibrosis. The note with it: rats treated with diethyldithiocarbamate; cited from earlier work.
The test system of test [4] is pancreatitis and vascular injury. The note with it: L-arginine induced pancreatic inflammation in rats; cited from earlier work.
The subject of test [5] is colonic leukocyte-chemokine expression and leukocyte accumulation. The note with it: mice; cited from earlier work.
In test [6] the test system is leukocyte-chemokine expression and leukocyte accumulation. Particulars: endotoxemic model of liver injury; cited from earlier work.
The subject of test [7] is acute gastric mucosal lesions. The note with it: rats; cited from earlier work.
For test [8], the system named is PMN accumulation in the eye. Particulars: uveitis, even after the onset of disease; cited from earlier work.
The next test has as its target T2, XOR (Homo sapiens, UniProt P47989).
T2 construct: host or cells: bronchoalveolar lavage fluid of COPD patients
Particulars: COPD; cited from earlier work.

For the next test, the system named is sarcoidosis. The note with it: cited from earlier work.
Test [9] deals with endothelial injury in the lungs (and gut). The note with it: heavy smokers and rats subjected to heavy smoking conditions; cited from earlier work.
In another test the test system is vascular injury. The note with it: mice, hemorrhagic shock or LPS injection, prior inhibition of XOR; cited from earlier work.
The next test deals with NADPH oxidase. The note with it: even at relatively high doses; cited from earlier work.
For test [10], the system named is IL-1 and IFN-γ insufflated rats. The test can be described thus: Lung histology (H&E) after cytokine insufflation. The note with it: diet before IL-1 and IFN-γ insufflation, 24 hours later (FIG. 4d).

T1 sequence (P22985 whole entry): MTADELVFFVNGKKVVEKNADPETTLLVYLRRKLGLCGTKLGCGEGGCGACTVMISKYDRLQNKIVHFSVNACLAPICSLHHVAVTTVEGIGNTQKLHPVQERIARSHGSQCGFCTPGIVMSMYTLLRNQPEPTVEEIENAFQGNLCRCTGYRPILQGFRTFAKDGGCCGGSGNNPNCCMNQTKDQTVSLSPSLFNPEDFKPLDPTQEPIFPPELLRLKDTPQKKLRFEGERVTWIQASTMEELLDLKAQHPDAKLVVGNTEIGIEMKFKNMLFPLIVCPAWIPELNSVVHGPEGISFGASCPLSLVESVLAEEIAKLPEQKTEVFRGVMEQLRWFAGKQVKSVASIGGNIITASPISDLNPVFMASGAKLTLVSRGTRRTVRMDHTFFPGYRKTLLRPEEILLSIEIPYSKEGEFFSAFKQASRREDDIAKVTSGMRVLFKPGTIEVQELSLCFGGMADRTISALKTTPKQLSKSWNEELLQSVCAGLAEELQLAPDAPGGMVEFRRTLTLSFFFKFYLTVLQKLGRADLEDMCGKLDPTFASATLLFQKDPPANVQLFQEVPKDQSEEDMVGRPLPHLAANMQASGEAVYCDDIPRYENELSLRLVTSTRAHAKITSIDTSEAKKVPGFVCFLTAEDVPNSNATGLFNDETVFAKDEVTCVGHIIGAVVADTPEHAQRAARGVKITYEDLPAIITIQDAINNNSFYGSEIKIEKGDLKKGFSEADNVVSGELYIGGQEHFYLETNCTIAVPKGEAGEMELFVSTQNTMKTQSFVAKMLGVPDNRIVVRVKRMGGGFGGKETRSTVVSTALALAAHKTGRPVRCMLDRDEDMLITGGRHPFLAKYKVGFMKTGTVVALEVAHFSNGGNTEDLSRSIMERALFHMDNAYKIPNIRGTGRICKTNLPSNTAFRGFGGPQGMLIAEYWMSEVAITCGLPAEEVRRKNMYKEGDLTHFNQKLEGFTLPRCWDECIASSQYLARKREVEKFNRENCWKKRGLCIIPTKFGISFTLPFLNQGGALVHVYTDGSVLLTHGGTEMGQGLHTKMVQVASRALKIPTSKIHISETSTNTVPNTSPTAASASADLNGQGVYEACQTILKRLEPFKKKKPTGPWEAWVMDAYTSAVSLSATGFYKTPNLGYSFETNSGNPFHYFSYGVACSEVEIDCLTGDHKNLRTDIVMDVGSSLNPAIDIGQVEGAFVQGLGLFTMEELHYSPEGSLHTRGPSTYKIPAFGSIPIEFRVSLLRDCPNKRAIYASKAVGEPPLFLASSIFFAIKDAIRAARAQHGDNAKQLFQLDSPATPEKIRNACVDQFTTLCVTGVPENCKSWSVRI
T2 sequence (P47989 whole entry): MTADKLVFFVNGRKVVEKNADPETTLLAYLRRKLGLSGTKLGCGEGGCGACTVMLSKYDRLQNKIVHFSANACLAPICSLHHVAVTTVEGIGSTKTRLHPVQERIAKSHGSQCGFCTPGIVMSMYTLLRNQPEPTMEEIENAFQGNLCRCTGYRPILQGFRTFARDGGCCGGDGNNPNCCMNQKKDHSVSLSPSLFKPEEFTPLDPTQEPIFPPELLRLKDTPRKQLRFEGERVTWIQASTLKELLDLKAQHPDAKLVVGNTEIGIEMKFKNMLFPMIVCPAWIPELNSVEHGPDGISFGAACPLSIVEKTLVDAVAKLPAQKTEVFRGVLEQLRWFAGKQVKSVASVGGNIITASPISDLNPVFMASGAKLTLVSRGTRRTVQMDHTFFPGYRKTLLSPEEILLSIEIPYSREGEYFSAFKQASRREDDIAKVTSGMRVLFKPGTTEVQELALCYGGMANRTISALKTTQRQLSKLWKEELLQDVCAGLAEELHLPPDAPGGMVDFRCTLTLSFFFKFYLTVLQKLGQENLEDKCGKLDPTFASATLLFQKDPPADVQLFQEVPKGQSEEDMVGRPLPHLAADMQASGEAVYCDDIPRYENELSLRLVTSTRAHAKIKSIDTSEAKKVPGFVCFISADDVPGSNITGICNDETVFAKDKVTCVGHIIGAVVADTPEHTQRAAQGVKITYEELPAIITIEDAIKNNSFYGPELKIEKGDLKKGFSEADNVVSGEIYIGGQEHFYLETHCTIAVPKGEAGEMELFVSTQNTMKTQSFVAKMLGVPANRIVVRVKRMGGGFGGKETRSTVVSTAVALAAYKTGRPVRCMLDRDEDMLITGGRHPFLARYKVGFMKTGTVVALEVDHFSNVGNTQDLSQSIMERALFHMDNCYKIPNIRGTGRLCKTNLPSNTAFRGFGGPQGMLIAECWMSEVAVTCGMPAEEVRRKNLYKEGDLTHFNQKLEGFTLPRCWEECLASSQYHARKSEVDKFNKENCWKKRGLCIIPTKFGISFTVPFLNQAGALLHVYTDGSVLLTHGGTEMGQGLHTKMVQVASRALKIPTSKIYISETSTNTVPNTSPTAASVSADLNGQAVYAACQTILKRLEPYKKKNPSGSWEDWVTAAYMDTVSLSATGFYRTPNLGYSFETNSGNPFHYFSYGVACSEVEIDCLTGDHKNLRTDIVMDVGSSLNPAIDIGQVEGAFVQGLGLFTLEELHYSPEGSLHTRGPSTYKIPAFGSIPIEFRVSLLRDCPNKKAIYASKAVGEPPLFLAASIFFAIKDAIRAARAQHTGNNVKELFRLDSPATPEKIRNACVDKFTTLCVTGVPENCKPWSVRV
Protocol for MNP XOR: A lung inflammatory response was induced in rats with IL-1 and IFN-γ insufflation. After 8 hours, cells from BALF were recovered from each rat in PBS, pooled, and quantitated. Cells were then divided into two equivalent fractions and exposed to 1 mM KOH or 1 mM KOH with 150 μM allopurinol in vitro. The neutral pH of the PBS and cell mixture was unchanged by adding 1 mM KOH. After 15 min, the cells were washed and resuspended in PBS. Subsequently, 2×10^6 of control or allopurinol treated cells were insufflated into control rats. 24 hours after cell insufflation, BALF cells were recovered from these rats, Wright's stained and quantitated. […] Data are the mean and standard error of 6 rats in each group.
To determine whether XOR induction in MNP could contribute to lung inflammation, we performed a cell transfer experiment. We induced a pulmonary inflammatory response in rats with IL-1 and IFN-γ insufflation, obtained these cells by bronchoalveolar lavage 8 hours later, and then treated these cells with either allopurinol or the vehicle for allopurinol in vitro. After a 15 min exposure to allopurinol or the vehicle, the cells were washed, resuspended in PBS, and then insufflated into control rats. Subsequently, cells were harvested from the BALF of these control rats, stained, and quantitated.

Consider `Oc1ncnc2[nH]ncc12` [allopurinol], for which, in test [1], the “accumulation of inflammatory cells (BALF cell numbers)” value is on record as “reduced”. The “development of alveolar apoptosis (TUNEL positive alveolar nuclei)” value in the test with alveolar cells is listed as “attenuated”. Further, the “activation of caspase-3 in cytokine insufflated rat lungs” value with caspase-3 is listed as “blocked”. In addition, the “recovery of neutrophils in the BALF after insufflation of treated BALF cells” value at MNP XOR is reported as “attenuated”. In addition, in the test on Id-2, the “Id-2 from BALF cells (Western immunoblot)” value is reported as “XOR dependent regulations of MNP Id-2 levels”. The “effect in patients with chronic heart failure, cardiomyopathy, or undergoing heart surgery” value in test [2] is recorded as “cardio-protective effect”. The vascular endothelial function result in [3] was “protective”. In addition, the superoxide generation result in the test with superoxide generation was “normalized”. Also, the pancreatic fibrosis entry with pancreatic fibrosis is “blocked”. The “evidence of pancreatitis and vascular injury” value in test [4] is reported as “blocked”. Also, the “I/R induced colonic leukocyte-chemokine expression and leukocyte accumulation” value in test [5] is “markedly reduced”. For the same compound, the “leukocyte-chemokine expression and leukocyte accumulation” value in test [6] is given as “blocked”. Also, in test [7], the “markers of leukocyte infiltration in the gut” value is on record as “decreased” and the “progression of experimentally induced acute gastric mucosal lesions” value is “blocked”. In addition, the “capacity to reduce PMN accumulation in the eye” value in [8] is “as effective as steroid treatment”. Also, on XOR, the “XOR and evidence of XOR derived oxidative stress” value was “reduced”. In addition, the “pulmonary sarcoidosis attributed to BCG vaccination” value in the test with sarcoidosis (human) is “completely regressed”. The sarcoidosis outcome in the test on sarcoidosis (patients with sarcoidosis) was “induce remission”. Also, the “endothelial injury in the lungs (and gut)” value in test [9] is given as “reduce”. Moreover, the “evidence of vascular injury” value in the test on vascular injury is “dramatically attenuated”. Further, the “scavenging of ROS generated from the NADPH oxidase” value in the test with NADPH oxidase is on record as “fails to scavenge”. In addition, the “histologic evidence of airway and perivascular inflammation” value in test [10] is “attenuated”.
